“And” between values parts separate entries of the source, which are not always exact repeats. Equal values may be shown once.
Test system: WT ELIC
Test: Fluorescence stopped-flow liposomal Tl+ flux assay, symmetric liposomes
Assay type: biochemical, Erwinia chrysanthemi
Conditions: for Avg (stopped-flow fluorescence quenching rate): average of experiments; for Rate (stopped-flow fluorescence quenching rate): single experiments
Method: The fluorescence sequential-mixing stopped-flow liposomal flux measurements were carried using an SX20 stopped-flow spectrofluorometer (Applied Photophysics) and Pro-Data SX software[13],[30]. 7.5 mg of the respective lipid mixture (POPC, 1:1 POPC: POPE, 1:1 POPC:POPG, 3:1 POPC:POPE, 3:1 POPC:POPG, 2:1:1 POPC:POPE:POPG) was dried in a glass vial to a thin film under a constant stream of N2. The lipids were then further dried under vacuum in a desiccator overnight. The following day the lipids were hydrated in 500 µl of reconstitution buffer (100 mM NaNO3, 10 mM HEPES, pH 7) (Buffer R), 250 µl of 75 mM 8-Aminonaphthalene-1,3,6-Trisulfonic Acid (ANTS, ThermoFisher Scientific) in buffer R, and doped with ~18 mg of CHAPS (Anatrace). The mixture was vortexed and then sonicated with heat until completely solubilized. Following the sonication, the solution was brought to RT then 3.5 µl of 6.7 mg/ml ELIC in Buffer A with 0.02% DDM was added (3 µg per mg of lipid). This combined solution was incubated at RT for 30 min, followed by the addition of 1 ml of 1:1 v/v SM-2 BioBeads in Buffer R and an additional 250 µl of 75 mM ANTS in Buffer R. This mixture was incubated at RT for 2.5 hr with gentle mixing. The liposome suspension was then extruded with an Avanti mini-extruder and 0.1 µm membrane (30×). The extruded liposomes were stored at 13 °C overnight with gentle rotation. The next day, the liposomes were diluted to 2.5 mL using assay buffer (140 mM NaNO3, 10 mM HEPES, pH 7) (Stopped-flow Buffer A), loaded into a PD-10 desalting column (Cytiva), eluted with 3 mL of Stopped-flow Buffer A and subsequently diluted 5-fold with Stopped-flow Buffer A.
Using propylamine as the agonist, the assay and analysis was carried out as previously described[13],[30]. ELIC-containing liposomes were first mixed 1:1 with Buffer A containing 2× the concentration of propylamine. After a variable delay of 10 ms to 25 s, the sample was then mixed 1:1 with a quenching buffer (90 mM NaNO3, 50 mM TlNO3, 10 mM HEPES, pH 7), and ANTS fluorescence (ex. 360 nm, fluorescence above 420 nm) was recorded for 1 s. For each delay time, 5 repeat measurements were obtained. The data were collected using Applied Photophysics Pro-Data SX software. The fluorescence quenching traces were fit to a stretched exponential (Eq. 2a) and the rate of Tl^+ influx was determined at 2 ms (Eq. 2b).2a Ft=F∞+F0−F∞⋅e^−t/τ^β 2b kt=β/τ⋅2ms/τ^(β−1) where Ft, F∞, F0 are the fluorescence at time t, final fluorescence and initial fluorescence. τ is the time constant, β the stretched exponential factor, and kt the calculated rate of Tl^+ influx at 2 ms. The time course of desensitization was also fit to a double exponential and a weighted time constant was calculated as was done for the patch-clamp data using Origin 2019b. All replicates were taken from independent samples.

[1] = WT in PC liposomes, 0.3 mM PA, delay time 0
[2] = WT in PC liposomes, 1 mM PA, delay time 0

**Q.** Which “Avg (stopped-flow fluorescence quenching rate)” value (“Avg” below) (WT in 2:1:1 PC:PE:PG liposomes, 3 mM PA, delay time 5) does the source give for `CCCN` [propylamine] here?
**A.** 145.791

**Q.** What about the “Avg” value (WT in 2:1:1 PC:PE:PG liposomes, 3 mM PA, delay time 10) of the same molecule?
**A.** 107.502

**Q.** What about the “Avg” value (WT in 2:1:1 PC:PE:PG liposomes, 3 mM PA, delay time 25) of the same molecule?
**A.** 38.6642

**Q.** And the “Rate (stopped-flow fluorescence quenching rate)” value (WT in 2:1:1 PC:PE:PG liposomes, 10 mM PA, delay time 0)?
**A.** 0

**Q.** What about the “Avg” value (WT in 2:1:1 PC:PE:PG liposomes, 10 mM PA, delay time 0.025) of the same molecule?
**A.** 169.086

**Q.** And the “Avg” value (WT in 2:1:1 PC:PE:PG liposomes, 10 mM PA, delay time 0.05)?
**A.** 180.798

**Q.** What about the “Avg” value (WT in 2:1:1 PC:PE:PG liposomes, 10 mM PA, delay time 0.05 [sic] (between 0.25 and 1)) of the same molecule?
**A.** 198.043

**Q.** And the “Rate (stopped-flow fluorescence quenching rate)” value (WT in 2:1:1 PC:PE:PG liposomes, 10 mM PA, delay time 0.05 [sic] (between 0.25 and 1), listed as PA)?
**A.** 249.635 and 148.719 and 195.774

**Q.** What about the “Avg” value (WT in 2:1:1 PC:PE:PG liposomes, 10 mM PA, delay time 0.1) of the same molecule?
**A.** 165.345

**Q.** And the “Avg” value (WT in 2:1:1 PC:PE:PG liposomes, 10 mM PA, delay time 0.25)?
**A.** 213.572

**Q.** What about the “Rate (stopped-flow fluorescence quenching rate)” value (WT in 2:1:1 PC:PE:PG liposomes, 10 mM PA, delay time 0.25, listed as PA) of the same molecule?
**A.** 256.17 and 144.253 and 240.291

**Q.** What about the “Avg” value (WT in 2:1:1 PC:PE:PG liposomes, 10 mM PA, delay time 1) of the same molecule?
**A.** 169.644

**Q.** And the “Rate (stopped-flow fluorescence quenching rate)” value (WT in 2:1:1 PC:PE:PG liposomes, 10 mM PA, delay time 1, listed as PA)?
**A.** 228.219 and 122.935 and 157.778

**Q.** And the “Avg” value (WT in 2:1:1 PC:PE:PG liposomes, 10 mM PA, delay time 2.5)?
**A.** 155.074

**Q.** And the “Avg” value (WT in 2:1:1 PC:PE:PG liposomes, 10 mM PA, delay time 5)?
**A.** 103.359

**Q.** What about the “Avg” value (WT in 2:1:1 PC:PE:PG liposomes, 10 mM PA, delay time 10) of the same molecule?
**A.** 60.9022

**Q.** And the “Avg” value (WT in 2:1:1 PC:PE:PG liposomes, 10 mM PA, delay time 25)?
**A.** 14.6606

**Q.** What about the “Rate (stopped-flow fluorescence quenching rate)” value (WT in 2:1:1 PC:PE:PG liposomes, 10 mM PA, delay time 25, listed as PA) of the same molecule?
**A.** 13.7363 and 15.821 and 14.4245

**Q.** And the “Rate (stopped-flow fluorescence quenching rate)” value (WT in 2:1:1 PC:PE:PG liposomes, 30 mM PA, delay time 0)?
**A.** 0

**Q.** And the “Avg” value (WT in 2:1:1 PC:PE:PG liposomes, 30 mM PA, delay time 0.025)?
**A.** 74.8381

**Q.** What about the “Avg” value (WT in 2:1:1 PC:PE:PG liposomes, 30 mM PA, delay time 0.05) of the same molecule?
**A.** 63.4545

**Q.** What about the “Avg” value (WT in 2:1:1 PC:PE:PG liposomes, 30 mM PA, delay time 0.1) of the same molecule?
**A.** 63.448

**Q.** What about the “Avg” value (WT in 2:1:1 PC:PE:PG liposomes, 30 mM PA, delay time 0.25) of the same molecule?
**A.** 66.7765

**Q.** And the “Avg” value (WT in 2:1:1 PC:PE:PG liposomes, 30 mM PA, delay time 0.5)?
**A.** 62.7383

**Q.** And the “Avg” value (WT in 2:1:1 PC:PE:PG liposomes, 30 mM PA, delay time 1)?
**A.** 67.601

**Q.** And the “Avg” value (WT in 2:1:1 PC:PE:PG liposomes, 30 mM PA, delay time 2.5)?
**A.** 40.183

**Q.** And the “Avg” value (WT in 2:1:1 PC:PE:PG liposomes, 30 mM PA, delay time 5)?
**A.** 15.7901

**Q.** What about the “Avg” value (WT in 2:1:1 PC:PE:PG liposomes, 30 mM PA, delay time 10) of the same molecule?
**A.** 23.9739

**Q.** And the “Avg” value (WT in 2:1:1 PC:PE:PG liposomes, 30 mM PA, delay time 25)?
**A.** 10.034

**Q.** And the “Rate (stopped-flow fluorescence quenching rate)” value (WT in 2:1:1 PC:PE:PG liposomes, 30 mM PA, delay time 25, listed as PA)?
**A.** 8.132 and 11.9359

**Q.** What about the “Avg” value [1] of the same molecule?
**A.** 0

**Q.** What about the “Rate (stopped-flow fluorescence quenching rate)” value [1] of the same molecule?
**A.** 0

**Q.** And the “Avg” value (WT in PC liposomes, 0.3 mM PA, delay time 0.01)?
**A.** 0.08537

**Q.** What about the “Rate (stopped-flow fluorescence quenching rate)” value (WT in PC liposomes, 0.3 mM PA, delay time 0.01, listed as PA) of the same molecule?
**A.** 0.07068 and 0.08871 and 9.67E-02

**Q.** And the “Avg” value (WT in PC liposomes, 0.3 mM PA, delay time 0.025)?
**A.** 0.09939

**Q.** And the “Avg” value (WT in PC liposomes, 0.3 mM PA, delay time 0.05)?
**A.** 0.06401

**Q.** And the “Avg” value (WT in PC liposomes, 0.3 mM PA, delay time 0.1)?
**A.** 0.08141

**Q.** What about the “Avg” value (WT in PC liposomes, 0.3 mM PA, delay time 0.25) of the same molecule?
**A.** 0.0402

**Q.** What about the “Rate (stopped-flow fluorescence quenching rate)” value (WT in PC liposomes, 0.3 mM PA, delay time 0.25, listed as PA) of the same molecule?
**A.** 0.04925 and 0.03838 and 0.03298

**Q.** And the “Avg” value (WT in PC liposomes, 0.3 mM PA, delay time 0.5)?
**A.** 0.1212

**Q.** And the “Rate (stopped-flow fluorescence quenching rate)” value (WT in PC liposomes, 0.3 mM PA, delay time 0.5, listed as PA)?
**A.** 0.0905 and 0.1754 and 0.09759

**Q.** And the “Avg” value (WT in PC liposomes, 0.3 mM PA, delay time 1)?
**A.** 0.07413

**Q.** And the “Avg” value (WT in PC liposomes, 0.3 mM PA, delay time 2.5)?
**A.** 0.08146

**Q.** And the “Rate (stopped-flow fluorescence quenching rate)” value (WT in PC liposomes, 0.3 mM PA, delay time 2.5, listed as PA)?
**A.** 0.09799 and 0.04957 and 0.09682

**Q.** And the “Avg” value (WT in PC liposomes, 0.3 mM PA, delay time 5)?
**A.** 0.09461

**Q.** And the “Avg” value [2]?
**A.** 0

**Q.** What about the “Rate (stopped-flow fluorescence quenching rate)” value [2] of the same molecule?
**A.** 0

**Q.** And the “Avg” value (WT in PC liposomes, 1 mM PA, delay time 0.01)?
**A.** 0.0808

**Q.** And the “Rate (stopped-flow fluorescence quenching rate)” value (WT in PC liposomes, 1 mM PA, delay time 0.01, listed as PA)?
**A.** 0.07542 and 0.09146 and 0.07551

**Q.** And the “Avg” value (WT in PC liposomes, 1 mM PA, delay time 0.025)?
**A.** 0.1635

**Q.** What about the “Avg” value (WT in PC liposomes, 1 mM PA, delay time 0.05) of the same molecule?
**A.** 0.08808

**Q.** And the “Rate (stopped-flow fluorescence quenching rate)” value (WT in PC liposomes, 1 mM PA, delay time 0.05, listed as PA)?
**A.** 0.09304 and 0.1089 and 0.06236
